Among the data in patent US8895504B2, “Amylin derivatives” (priority 2008, dated 2014) are EC50 values, retold here.

*1 amine or outer side, *2 acyl side, *3 side chain or, on linkers, in order; H or OH if unused. Where a SMILES comes first, the peptide text is derived from it. Bridges are numbered along the chain shown (N, C = ends). The star is where a group is joined. C20 diacid = O=C(O)CCCCCCCCCCCCCCCCCCC(=O)*; C18 diacid = O=C(O)CCCCCCCCCCCCCCCCC(=O)*; γGlu = O=C(O)[C@H](CCC(=O)[*:2])N[*:1]; Adipoyl = O=C(CCCCC(=O)[*:2])[*:1]; AEEA = NCCOCCOCC(=O)O

The target in the assay is T1, Amylin 3(a) receptor (human calcitonin receptor (CTa) and RAMP-3) (Homo sapiens, UniProt O60896+P30988).
T1 construct: expressed in transfected cells; host or cells: BHK570 cells, stably transfected with a CRE-luciferase reporter
Put plainly: Luciferase assay (III), BHK Amylin 3(a)//CRE-luc cells. The note with it: BHK cells with Amylin 3(a) receptor and CRE luciferase reporter, 4 hours incubation; read-out: Potency Luciferase. It is filed as cell-based. The method in brief: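 Read-out is CRE-driven luciferase luminescence, taken 30 min after LucLite addition at room temperature. Compounds were incubated 4 h at 37° C in assay medium (10% FBS, 10 mM Hepes, pH 7,4). The cell line is BHK570 co-transfected with human calcitonin receptor CTa and RAMP-3, seeded overnight before use.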

T1 sequence (O60896 24-148): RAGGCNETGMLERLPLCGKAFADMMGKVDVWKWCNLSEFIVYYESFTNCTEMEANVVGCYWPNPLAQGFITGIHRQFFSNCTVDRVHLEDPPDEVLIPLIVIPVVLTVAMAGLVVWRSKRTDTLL
T1 sequence (P30988 25-474): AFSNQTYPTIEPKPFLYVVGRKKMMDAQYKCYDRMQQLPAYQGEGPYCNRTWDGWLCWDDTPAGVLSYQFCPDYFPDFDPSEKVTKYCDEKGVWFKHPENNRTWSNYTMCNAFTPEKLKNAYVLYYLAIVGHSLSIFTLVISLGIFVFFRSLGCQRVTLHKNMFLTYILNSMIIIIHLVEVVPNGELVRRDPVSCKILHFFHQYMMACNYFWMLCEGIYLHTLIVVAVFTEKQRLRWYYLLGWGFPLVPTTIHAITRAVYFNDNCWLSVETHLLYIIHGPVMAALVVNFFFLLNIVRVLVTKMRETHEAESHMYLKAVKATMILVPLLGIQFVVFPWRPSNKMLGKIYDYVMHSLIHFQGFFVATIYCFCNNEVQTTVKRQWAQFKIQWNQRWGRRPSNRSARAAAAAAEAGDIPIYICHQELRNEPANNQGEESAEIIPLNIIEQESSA

Consider `CC[C@H](C)[C@H](NC(=O)[C@@H]1CCCN1C(=O)CNC(=O)[C@H](Cc1ccccc1)NC(=O)[C@H](CC(N)=O)NC(=O)[C@H](CC(N)=O)NC(=O)[C@H](CO)NC(=O)[C@H](CO)NC(=O)[C@H](Cc1c[nH]cn1)NC(=O)[C@H](Cc1c[nH]cn1)NC(=O)[C@H](CC(C)C)NC(=O)[C@H](Cc1ccccc1)NC(=O)[C@H](CC(N)=O)NC(=O)[C@H](C)NC(=O)[C@H](CC(C)C)NC(=O)[C@H](CCCNC(=N)N)NC(=O)[C@H](CCC(N)=O)NC(=O)[C@@H](NC(=O)[C@H](C)NC(=O)[C@@H]1CSSC[C@H](NC(=O)[C@H](Cc2c[nH]cn2)NC(=O)[C@H](Cc2c[nH]cn2)NC(=O)[C@H](Cc2c[nH]cn2)NC(=O)CC[C@H](NC(=O)CCCCC(=O)O)C(=O)O)C(=O)N[C@@H](CC(N)=O)C(=O)N[C@@H]([C@@H](C)O)C(=O)N[C@@H](C)C(=O)N[C@@H]([C@@H](C)O)C(=O)N1)[C@@H](C)O)C(=O)N[C@@H](CC(C)C)C(=O)N1CCC[C@H]1C(=O)N1CCC[C@H]1C(=O)N[C@H](C(=O)N[C@@H](CC(N)=O)C(=O)N[C@H](C(=O)NCC(=O)N[C@@H](CO)C(=O)N[C@@H](CC(N)=O)C(=O)N[C@H](C(=O)N[C@@H](Cc1ccc(O)cc1)C(N)=O)[C@@H](C)O)C(C)C)[C@@H](C)O` [Example 61, N-alpha-[(S)-4-Carboxy-4-(5-carboxypentanoylamino)butyryl]-His-His-[His1,His17]-pramlintide] ({Adipoyl-γGlu}-HHHCNTATCATQRLANFLHHSSNNFGPILPPTNVGSNTY-NH2; disulfide 4-9), for which the EC50 amounted to 0.04 nM.
In the case of `CC[C@H](C)[C@H](NC(=O)[C@@H]1CCCN1C(=O)CNC(=O)[C@H](Cc1ccccc1)NC(=O)[C@H](CC(N)=O)NC(=O)[C@H](CC(N)=O)NC(=O)[C@H](CO)NC(=O)[C@H](CO)NC(=O)[C@H](Cc1c[nH]cn1)NC(=O)[C@H](Cc1c[nH]cn1)NC(=O)[C@H](CC(C)C)NC(=O)[C@H](Cc1ccccc1)NC(=O)[C@H](CC(N)=O)NC(=O)[C@H](C)NC(=O)[C@H](CC(C)C)NC(=O)[C@H](CCCNC(=N)N)NC(=O)[C@H](CCC(N)=O)NC(=O)[C@@H](NC(=O)[C@H](C)NC(=O)[C@@H]1CSSC[C@H](NC(=O)COCCOCCNC(=O)COCCOCCNC(=O)CC[C@H](NC(=O)CCCCCCCCCCCCCCCCC(=O)O)C(=O)O)C(=O)N[C@@H](CC(N)=O)C(=O)N[C@@H]([C@@H](C)O)C(=O)N[C@@H](C)C(=O)N[C@@H]([C@@H](C)O)C(=O)N1)[C@@H](C)O)C(=O)N[C@@H](CC(C)C)C(=O)N1CCC[C@H]1C(=O)N1CCC[C@H]1C(=O)N[C@H](C(=O)N[C@@H](CC(N)=O)C(=O)N[C@H](C(=O)NCC(=O)N[C@@H](CO)C(=O)N[C@@H](CC(N)=O)C(=O)N[C@H](C(=O)N[C@@H](Cc1ccc(O)cc1)C(N)=O)[C@@H](C)O)C(C)C)[C@@H](C)O` [Example 62, N-alpha-[2-(2-{2-[2-(2-{2-[(S)-4-Carboxy-4-(17-carboxyheptadecanoylamino)butyrylamino]ethoxy}ethoxy)acetylamino]ethoxy}ethoxy)acetyl][His17]-pramlintide (2-37)] ({C18 diacid-γGlu-AEEA-AEEA}-CNTATCATQRLANFLHHSSNNFGPILPPTNVGSNTY-NH2; disulfide 1-6), the EC50 stood at 0.04 nM.
As for `CC[C@H](C)[C@H](NC(=O)[C@@H]1CCCN1C(=O)CNC(=O)[C@H](Cc1ccccc1)NC(=O)[C@H](CC(N)=O)NC(=O)[C@H](CCC(N)=O)NC(=O)[C@H](CO)NC(=O)[C@H](CO)NC(=O)[C@H](Cc1c[nH]cn1)NC(=O)[C@H](Cc1c[nH]cn1)NC(=O)[C@H](CC(C)C)NC(=O)[C@H](Cc1ccccc1)NC(=O)[C@H](CC(N)=O)NC(=O)[C@H](C)NC(=O)[C@H](CC(C)C)NC(=O)[C@H](CCCNC(=N)N)NC(=O)[C@H](CCC(N)=O)NC(=O)[C@@H](NC(=O)[C@H](C)NC(=O)[C@@H]1CSSC[C@H](NC(=O)[C@H](CCCNC(=N)N)NC(=O)[C@H](Cc2c[nH]cn2)NC(=O)[C@H](Cc2c[nH]cn2)NC(=O)[C@H](CCC(=O)O)NC(=O)CC[C@H](NC(=O)CCCCCCCCCCCCCCCCCCC(=O)O)C(=O)O)C(=O)N[C@@H](CC(N)=O)C(=O)N[C@@H]([C@@H](C)O)C(=O)N[C@@H](C)C(=O)N[C@@H]([C@@H](C)O)C(=O)N1)[C@@H](C)O)C(=O)N[C@@H](CC(C)C)C(=O)N1CCC[C@H]1C(=O)N1CCC[C@H]1C(=O)N[C@H](C(=O)N[C@@H](CC(N)=O)C(=O)N[C@H](C(=O)NCC(=O)N[C@@H](CO)C(=O)N[C@@H](CC(N)=O)C(=O)N[C@H](C(=O)N[C@@H](Cc1ccc(O)cc1)C(N)=O)[C@@H](C)O)C(C)C)[C@@H](C)O` [Example 63, N-alpha-[(S)-4-Carboxy-4-(19-carboxynonadecanoylamino)butyryl]-GluHis-His-[Arg1,His17,Gln21]-pramlintide] ({C20 diacid-γGlu}-EHHRCNTATCATQRLANFLHHSSQNFGPILPPTNVGSNTY-NH2; disulfide 5-10), the EC50 was 0.1 nM.
As to `CC[C@H](C)[C@H](NC(=O)[C@@H]1CCCN1C(=O)CNC(=O)[C@H](Cc1ccccc1)NC(=O)[C@H](CC(N)=O)NC(=O)[C@H](CCC(N)=O)NC(=O)[C@H](CO)NC(=O)[C@H](CO)NC(=O)[C@H](Cc1c[nH]cn1)NC(=O)[C@H](CCCNC(=N)N)NC(=O)[C@H](CC(C)C)NC(=O)[C@H](Cc1ccccc1)NC(=O)[C@H](CC(N)=O)NC(=O)[C@H](C)NC(=O)[C@H](CC(C)C)NC(=O)[C@H](CCCNC(=N)N)NC(=O)[C@H](CCC(N)=O)NC(=O)[C@@H](NC(=O)[C@H](C)NC(=O)[C@@H]1CSSC[C@H](NC(=O)[C@H](CCCNC(=N)N)NC(=O)[C@H](Cc2c[nH]cn2)NC(=O)[C@H](Cc2c[nH]cn2)NC(=O)COCCOCCNC(=O)CC[C@H](NC(=O)CCCCCCCCCCCCCCCCCCC(=O)O)C(=O)O)C(=O)N[C@@H](CC(N)=O)C(=O)N[C@@H]([C@@H](C)O)C(=O)N[C@@H](C)C(=O)N[C@@H]([C@@H](C)O)C(=O)N1)[C@@H](C)O)C(=O)N[C@@H](CC(C)C)C(=O)N1CCC[C@H]1C(=O)N1CCC[C@H]1C(=O)N[C@H](C(=O)N[C@@H](CC(N)=O)C(=O)N[C@H](C(=O)NCC(=O)N[C@@H](CO)C(=O)N[C@@H](CC(N)=O)C(=O)N[C@H](C(=O)N[C@@H](Cc1ccc(O)cc1)C(N)=O)[C@@H](C)O)C(C)C)[C@@H](C)O` [Example 65, N-alpha-[2-(2-{2-[4-(S)-Carboxy-4-(19-carboxynonadecanoylamino)butyrylamino]ethoxy}ethoxy)acetyl]-His-His-[Arg1,Arg17,Gln21]-pramlintide] ({C20 diacid-γGlu-AEEA}-HHRCNTATCATQRLANFLRHSSQNFGPILPPTNVGSNTY-NH2; disulfide 4-9), the EC50 was 0.1 nM.
